From ChEMBL document CHEMBL1949568, “Discovery of diphenyl lactam derivatives as N-type calcium channel blockers” (Bioorg Med Chem Lett, 2012)
In brackets after ≈: the same amount, converted by molar mass. Activity calls are given as the source filed them. The calls are words filed in the database; no cut-off is given here.

Key:
[1] = Aqueous solubility of the compound at pH 7; assay type: physicochemical
[2] = Inhibition of N-type calcium channel by FLIPR assay
[3] = Plasma clearance in rat at 5 umol/kg, iv and 30 umol/kg, po; assay type: ADME, organism-based
[4] = Half life in rat at 5 umol/kg, iv and 30 umol/kg, po; assay type: ADME, organism-based; details: in vivo
[5] = AUC in rat at 30 umol/kg, po; assay type: ADME, organism-based; details: plasma
[6] = Volume of distribution at steady state in rat at 5 umol/kg, iv and 30 umol/kg, po; assay type: ADME, organism-based; details: in vivo, read-out: Vdss
[7] = Oral bioavailability in rat at 30 umol/kg; assay type: ADME, organism-based; details: in vivo
[8] = Plasma clearance in rat at 3 umol/kg, po; assay type: ADME, organism-based
[9] = Oral bioavailability in rat at 3 umol/kg; assay type: ADME, organism-based; details: in vivo
[10] = AUC in rat at 3 umol/kg, po; assay type: ADME, organism-based; details: plasma
[11] = test system: Rattus norvegicus; assay: Antinociceptive activity in rat capsaicin model of secondary mechanical hyperalgesia assessed as inhibition of tactile allodynia at 30 mg/kg, po; assay type: functional, organism-based; set-up: dose 30 mg/kg
[12] = Half life in rat at 3 umol/kg, po; assay type: ADME, organism-based; details: in vivo
[13] = test system: Rattus norvegicus; assay: Volume of distribution at steady state in rat at 3 umol/kg, po; assay type: ADME, organism-based; details: in vivo
[14] = Metabolic stability in rat liver microsomes assessed as compound remaining after 30 mins; assay type: ADME, Microsome; details: read-out: Stability
[15] = Metabolic stability in human liver microsomes assessed as compound remaining after 30 mins; assay type: ADME, Microsome; details: read-out: Stability
[16] = test system: Rattus norvegicus; assay: Antinociceptive activity in rat capsaicin model of secondary mechanical hyperalgesia assessed as inhibition of tactile allodynia at 150 mg/kg, po; assay type: functional, organism-based; set-up: dose 150 mg/kg

SMILES	solubility [1]	IC50 [2]	pIC50 [2]	other results
O=C(CN1CCC(c2ccccc2)(c2ccccc2)C1=O)N1CCN(C(c2ccccc2)c2ccc(F)cc2)CC1 (stereo not drawn)	< 25 µM	0.45 µM	6.35	
O=C(CN1CCCC(c2ccccc2)(c2ccccc2)C1=O)N1CCc2ccc(C(F)(F)F)cc2C1	< 25 µM	4.44 µM	5.35	
O=C(CN1CCCC(c2ccccc2)(c2ccccc2)C1=O)N1CCC(c2ccccc2)(c2ccccc2)CC1	< 25 µM	0.66 µM	6.18	clearance [3]: 45 mL/min/kg; half-life [4]: 6.3 h; AUC [5]: 2990 ng·h/mL; Vd [6]: 11.4 L/kg; bioavailability [7]: 50%
O=C(CN1CCCC(c2ccc(F)cc2)(c2ccc(F)cc2)C1=O)N1CCN(C(c2ccccc2)c2ccccc2)CC1	< 25 µM	4.61 µM	5.34	
O=C(CN1CCCC(c2ccccc2)(c2ccccc2)C1=O)N1CCC(C(O)(c2ccccc2)c2ccccc2)CC1	< 25 µM	1.74 µM	5.76	
O=C(CN1CCCC(c2ccccc2)(c2ccccc2)C1=O)N1CCN(Cc2cccc(Cl)c2)CC1	< 25 µM	1.32 µM	5.88	
O=C(CN1CCCC(c2ccccc2)(c2ccccc2)C1=O)N1CCN(C(c2ccc(F)cc2)c2ccc(F)cc2)CC1	< 25 µM	2.36 µM	5.63	
O=C(CN1CCCC(c2ccccc2)(c2ccccc2)C1=O)N1CC(c2ccc(C(F)(F)F)cc2)C1	< 25 µM	3.07 µM	5.51	
O=C(CN1CCC(c2ccccc2)(c2ccccc2)C1=O)N1CCN(C(c2ccccc2)c2ccccc2)CC1	< 25 µM	0.72 µM	6.14	CL/F [8]: 26.7 mL/min/kg; bioavailability [9]: 16.4%; AUC [10]: 159 ng·h/mL; inhibition [11]: Active; half-life [12]: 5.6 h; Vdss [13]: 6.9 L/kg; remaining at 0.5 h [14]: 0.4%
O=C(CN1CCC(c2ccccc2)(c2ccccc2)C1=O)N1CCN(Cc2c(Cl)cccc2Cl)CC1	< 25 µM	0.9 µM	6.04	
O=C(CN1CCCC(c2ccccc2)(c2ccccc2)C1=O)N1CCC(NC(c2ccccc2)c2ccccc2)CC1	< 25 µM	0.81 µM	6.09	remaining at 0.5 h [15]: < 0.1%; remaining at 0.5 h [14]: < 0.1%
O=C(CN1CCC(c2ccccc2)(c2ccccc2)C1=O)N1CCN(Cc2ccc(F)cc2)CC1	57 µM (≈ 26.9 µg/mL)	2.22 µM	5.65	
O=C(CN1CCCC(c2ccccc2)(c2ccccc2)C1=O)N1CCN(Cc2cccc(C(F)(F)F)c2)CC1	< 25 µM	0.93 µM	6.03	clearance [3]: 41.7 mL/min/kg; half-life [4]: 2.7 h; AUC [5]: 1000 ng·h/mL; remaining at 0.5 h [15]: 0.1%; Vd [6]: 5.9 L/kg; bioavailability [7]: 15.6%; remaining at 0.5 h [14]: 1.2%
NCC1(CC(=O)O)CCCCC1				inhibition [16]: Active
O=C(CN1CCCC(c2ccccc2)(c2ccccc2)C1=O)N1CCN(Cc2ccc(Cl)cc2Cl)CC1	< 25 µM	1.8 µM	5.75	
O=C(CN1CCCC(c2ccc(F)cc2)(c2ccc(F)cc2)C1=O)N1CCN(Cc2cccc(C(F)(F)F)c2)CC1	< 25 µM	1.36 µM	5.87	
O=C(CN1CCC(c2ccc(F)cc2)(c2ccc(F)cc2)C1=O)N1CCN(Cc2cccc(C(F)(F)F)c2)CC1	< 25 µM	1.01 µM	6	
O=C(CN1CCC(c2ccccc2)(c2ccccc2)C1=O)N1CCN(Cc2ccc(Cl)cc2Cl)CC1	< 25 µM	0.52 µM	6.28	
O=C(CN1CCC(c2ccc(F)cc2)(c2ccc(F)cc2)C1=O)N1CCN(C(c2ccccc2)c2ccccc2)CC1	< 25 µM	0.83 µM	6.08	CL/F [8]: 36.7 mL/min/kg; bioavailability [9]: 20.3%; remaining at 0.5 h [15]: 2.5%; AUC [10]: 160 ng·h/mL; inhibition [11]: Active; half-life [12]: 7.2 h; Vdss [13]: 13.2 L/kg; remaining at 0.5 h [14]: 2%
O=C(CN1CCCC(c2ccccc2)(c2ccccc2)C1=O)N1CCC(C(c2ccccc2)c2ccccc2)CC1	< 25 µM	2.61 µM	5.58	
O=C(CN1CCC(c2ccccc2)(c2ccccc2)C1=O)N1CCN(Cc2cccc(C(F)(F)F)c2)CC1	< 25 µM	1.03 µM	5.99	remaining at 0.5 h [15]: 0.3%; remaining at 0.5 h [14]: 0.1%
O=C(CN1CCCC(c2ccccc2)(c2ccccc2)C1=O)N1CCCC(c2ccccc2)(c2ccccc2)C1	< 25 µM	0.81 µM	6.09	
O=C(CN1CCCC(c2ccccc2)(c2ccccc2)C1=O)N1CCN(C(c2ccccc2)c2ccccc2)CC1	< 25 µM	1.38 µM	5.86	CL/F [8]: 25 mL/min/kg; bioavailability [9]: 16.6%; remaining at 0.5 h [15]: 0.1%; AUC [10]: 186 ng·h/mL; inhibition [11]: Active; half-life [12]: 5.2 h; Vdss [13]: 5.8 L/kg; remaining at 0.5 h [14]: 0.1%
O=C(CN1CCCC(c2ccccc2)(c2ccccc2)C1=O)N1CCN(Cc2ccc(C(F)(F)F)cc2)CC1	< 25 µM	1.38 µM	5.86	
O=C(CN1CCC(c2ccccc2)(c2ccccc2)C1=O)N1CCN(C(c2ccccc2)c2ccc(Cl)cc2)CC1 (stereo not drawn)	< 25 µM	1.01 µM	5.99	
O=C(CN1CCCC(c2ccccc2)(c2ccccc2)C1=O)N1CCC(c2ccccc2)(c2ccccc2)C1	< 25 µM	2.43 µM	5.61	
O=C(CN1CCC(c2ccccc2)(c2ccccc2)C1=O)N1CCN(C(c2ccc(F)cc2)c2ccc(F)cc2)CC1	< 25 µM	0.43 µM	6.37	
